Results on twelve molecules are retold here after patent publication US20240300948A1, “Heterocyclic Compounds As Kinase Inhibitors” (Incyte Corporation, priority 2023, published 2024).

In assay [1] the target is T1, pseudo-kinase domain (JH2, amino-acids 536-812 with 3 surface mutations W659A, W777A, F794H) of human V617F mutant JAK2 (Homo sapiens, UniProt O60674, F794H/V617F/W659A/W777A).
T1 construct: pseudo-kinase domain (JH2, amino-acids 536-812 with 3 surface mutations W659A, W777A, F794H); His (C); Avi (biotinylated) (C); purchased BPS Bioscience 79498; host or cells: baculovirus expression system
Briefly: JAK2 LanthaScreen JH2-V617F binding assay. Particulars: 50 nM tracer, 1 hour at 25° C., read-out: JH2 BIND V617F IC50. As to the method:
Example C. JAK2 LanthaScreen JH2-V617F Binding Assay
(§1) JAK2 JH2-V617F binding assay utilizes pseudo-kinase domain (JH2, amino-acids 536-812 with 3 surface mutations W659A, W777A, F794H) of human V617F mutant JAK2 expressed as C-terminal His-Avi-tagged, biotinylated protein in a baculovirus expression system (BPS Bioscience, Catalog #79498). The assay was conducted in black 384-well polystyrene plates in a final reaction volume of 20 μL. JAK2 JH2-V617F (0.26 nM) was incubated with compounds (100 nL serially diluted in DMSO) in the presence of 50 nM Fluorescent JAK2-JH2 Tracer (MedChem Express Catalog #HY-102055) and 0.25 nM Streptavidin-Tb cryptate (Cisbio Part #610SATLB) in assay buffer (50 mM Tris, pH=7.5, 10 mM MgCl2, 0.01% Brij-35, 0.1% BSA, 1 mM EGTA, 5% Glycerol and 5 mM DTT). Non-specific binding was accessed in the presence of 2 mM ATP. After incubation for 1 hour at 25° C., LanthaScreen signals were read on a PHERAstar FS plate reader (BMG LABTECH). Data was analyzed with IDBS XLfit and GraphPad Prism 5.0 software using a four parameter dose response curve to determine IC50 for each compound.
For orientation: TR-FRET usually uses a lanthanide donor and a delayed reading to cut background.

For assay [2], the target named is T2, pseudo-kinase domain (JH2, amino-acids 536-812 with 3 surface mutations W659A, W777A, F794H) of human Wild Type JAK2 (Homo sapiens, UniProt O60674, F794H/W659A/W777A).
T2 construct: pseudo-kinase domain (JH2, amino-acids 536-812 with 3 surface mutations W659A, W777A, F794H); His (C); Avi (biotinylated) (C); purchased BPS Bioscience 79463; host or cells: baculovirus expression system
Briefly: JAK2 LanthaScreen JH2-WT binding assay. Particulars: 50 nM tracer, 1 hour at 25° C., read-out: JH2 BIND WT IC50. As to the method:
Example B. JAK2 LanthaScreen JH2-WT Binding Assay
as §1, with “JH2-WT” for “JH2-V617F”, “Wild Type” for “V617F mutant”, “#79463).” for “#79498).”, “JH2-WT (0.145” for “JH2-V617F (0.26”

The target in assay [3] is T3, catalytic domain (JH1, amino acids 826-1132) of human JAK2 (Homo sapiens, UniProt O60674).
T3 construct: catalytic domain (JH1, amino acids 826-1132) of human JAK2; FLAG (N); purchased Carna Biosciences 08-445-20N; host or cells: baculovirus expression system
The assay can be described thus: JAK2 LanthaScreen JH1 binding assay. As to conditions: 50 nM tracer, 2 hours at 25° C., read-out: JH1 BIND IC50. Here is the method: Example A. JAK2 LanthaScreen […] Binding Assay
JAK2 JH1 binding assay utilizes catalytic domain (JH1, amino acids 826-1132) of human JAK2 expressed as N-terminal FLAG-tagged, biotinylated protein in a baculovirus expression system (Carna Biosciences, Product #08-445-20N). The assay was conducted in black 384-well polystyrene plates in a final reaction volume of 20 μL. JAK2 JH1 (1.5 nM) was incubated with compounds (100 nL serially diluted in DMSO) in the presence of 50 nM fluorescent JAK2-JH1 tracer and 0.5 nM Streptavidin-Tb cryptate (Cisbio Part #610SATLB) in assay buffer (50 mM Tris, pH=7.5, 10 mM MgCl2, 0.01% Brij-35, 0.1% BSA, 1 mM EGTA, 5% Glycerol and 5 mM DTT). Non-specific binding was accessed in the presence of 2 mM ATP. After incubation for 2 hours at 25° C., LanthaScreen signals were read on a PHERAstar FS plate reader (BMG LABTECH). Data was analyzed with IDBS XLfit and GraphPad Prism 5.0 software using a four parameter dose response curve to determine IC50 for each compound.

T1 sequence (O60674 536-812 V617F/W659A/W777A/F794H): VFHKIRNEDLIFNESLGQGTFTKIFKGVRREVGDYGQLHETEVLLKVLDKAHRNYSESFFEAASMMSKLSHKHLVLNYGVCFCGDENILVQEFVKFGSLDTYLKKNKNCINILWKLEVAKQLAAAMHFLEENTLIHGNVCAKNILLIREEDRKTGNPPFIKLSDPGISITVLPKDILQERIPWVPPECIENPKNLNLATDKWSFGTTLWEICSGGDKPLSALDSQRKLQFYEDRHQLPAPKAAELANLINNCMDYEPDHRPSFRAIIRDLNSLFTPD
T2 sequence (O60674 536-812 W659A/W777A/F794H): as the sequence (O60674 536-812 V617F/W659A/W777A/F794H) above, with F82V counted along it
T3 sequence (O60674 826-1132): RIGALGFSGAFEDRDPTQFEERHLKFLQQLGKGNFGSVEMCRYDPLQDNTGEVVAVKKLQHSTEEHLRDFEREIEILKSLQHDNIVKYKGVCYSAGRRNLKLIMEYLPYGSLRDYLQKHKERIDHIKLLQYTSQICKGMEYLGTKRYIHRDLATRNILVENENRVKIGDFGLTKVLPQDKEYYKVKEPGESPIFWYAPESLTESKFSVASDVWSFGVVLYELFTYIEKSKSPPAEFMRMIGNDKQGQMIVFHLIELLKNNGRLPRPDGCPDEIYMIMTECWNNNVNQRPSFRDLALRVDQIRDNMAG

In the case of `COC(=O)N[C@@H]1CC[C@@H](n2c(=O)nc(OC)c3cnc4[nH]c(-c5cnn(C)c5)c(-c5ccc6c(cnn6C(C)C)c5)c4c32)C1` [Example 40, Methyl ((1R,3R)-3-(9-(1-isopropyl-1H-indazol-5-yl)-4-methoxy-8-(1-methyl-1H-pyrazol-4-yl)-2-oxo-2,7-dihydro-1H-pyrrolo[3′,2′:5,6]pyrido[4,3-d]pyrimidin-1-yl)cyclopentyl)carbamate], the results for the IC50 in assay [1], in assay [2] and in assay [3] were 100 to 500 nM, 10 to 100 nM and over 1000 nM, respectively.
The like results for `CC(=O)N[C@@H]1CC[C@@H](N2C(=O)NCc3cnc4[nH]c(-c5cnn(C)c5)c(-c5ccc6c(cnn6C(C)C)c5)c4c32)C1` [Example 9, N-((1R,3R)-3-(9-(1-Isopropyl-1H-indazol-5-yl)-8-(1-methyl-1H-pyrazol-4-yl)-2-oxo-2,3,4,7-tetrahydro-1H-pyrrolo[3′,2′:5,6]pyrido[4,3-d]pyrimidin-1-yl)cyclopentyl) acetamide] were, in that order, 10 to 100 nM, 10 to 100 nM and over 1000 nM.
For `COC(=O)N[C@@H]1CC[C@@H](N2C(=O)NCc3cnc4[nH]c(-c5cnn(C)c5)c(-c5ccc6c(c5)COC6(C)C)c4c32)C1` [Example 26, Methyl ((1R,3R)-3-(9-(1,1-dimethyl-1,3-dihydroisobenzof uran-5-yl)-8-(1-methyl-1H-pyrazol-4-yl)-2-oxo-2,3,4,7-tetrahydro-1H-pyrrolo[3′,2′:5,6]pyrido[4,3-d]pyrimidin-1-yl)cyclopentyl)ca rbamate] the same measures were at most 10 nM, at most 10 nM and 500 to 1000 nM.
Regarding `CC(C)n1ncc2cc(-c3c(-c4cnn(C)c4)[nH]c4ncc5c(c34)N([C@@H]3CC[C@@H](NC(=O)C4CC4)C3)C(=O)NC5)ccc21` [Example 11, N-((1R,3R)-3-(9-(1-Isopropyl-1H-indazol-5-yl)-8-(1-methyl-1H-pyrazol-4-yl)-2-oxo-2,3,4,7-tetrahydro-1H-pyrrolo[3′,2′:5,6]pyrido[4,3-d]pyrimidin-1-yl)cyclopentyl) cyclopropanecarboxamide], the figures for the IC50 in assay [1], in assay [2] and in assay [3] were 10 to 100 nM, 10 to 100 nM and over 1000 nM, respectively.
Take `COC(=O)N[C@@H]1CC[C@@H](n2c(=O)nc(N(C)C)c3cnc4[nH]c(-c5cnn(C)c5)c(-c5ccc6c(cnn6C(C)C)c5)c4c32)C1` [Example 43, Methyl ((1R,3R)-3-(4-(dimethylamino)-9-(1-isopropyl-1H-indazol-5-yl)-8-(1-methyl-1H-pyrazol-4-yl)-2-oxo-2,7-dihydro-1H-pyrrolo[3′,2′:5,6]pyrido[4,3-d]pyrimidin-1-yl)cyclopentyl)carbamate]: the concentration for half-maximal inhibition (IC50) (commonly the concentration that gives 50% inhibition) is 100 to 500 nM in assay [1], 100 to 500 nM in assay [2] and over 1000 nM in assay [3].
Take `COC(=O)N1CC2(CCC(N3C(=O)NCc4cnc5[nH]c(-c6cnn(C)c6)c(-c6ccc7c(cnn7C(C)C)c6)c5c43)CC2)C1` [Example 18, Methyl 7-(9-(1-isopropyl-1H-indazol-5-yl)-8-(1-methyl-1H-pyrazol-4-yl)-2-oxo-2,3,4,7-tetrahydro-1H-pyrrolo[3′,2′:5,6]pyrido[4,3-d]pyrimidin-1-yl)-2-azaspiro[3.5] nonane-2-carboxylate]: the IC50 in assay [1] is 10 to 100 nM; in assay [2], 10 to 100 nM; in assay [3], 100 to 500 nM.
Regarding `CC(C)n1ncc2cc(-c3c(-c4cnn(C)c4)[nH]c4ncc5c(c34)N(C3CCN(C(=O)NCC(F)F)CC3)C(=O)NC5)ccc21` [Example 17, N-(2,2-Difluoroethyl)-4-(9-(1-isopropyl-1H-indazol-5-yl)-8-(1-methyl-1H-pyrazol-4-yl)-2-oxo-2,3,4,7-tetrahydro-1H-pyrrolo[3′,2′:5,6]pyrido[4,3-d]pyrimidin-1-yl)piperidine-1-carboxamide], the IC50 in assay [1] was 10 to 100 nM; in assay [2], 10 to 100 nM; in assay [3], over 1000 nM.
Consider `COC(=O)N[C@@H]1CC[C@@H](N2C(=O)NCc3cnc4[nH]c(-c5cnn(C)c5)c(-c5ccc6c(cnn6C(C)C)c5)c4c32)C1` [Example 30, Methyl ((1R,3R)-3-(9-(1-isopropyl-1H-indazol-5-yl)-8-(1-methyl-1H-pyrazol-4-yl)-2-oxo-2,3,4,7-tetrahydro-1H-pyrrolo[3′,2′:5,6]pyrido[4,3-d]pyrimidin-1-yl)cyclopentyl) carbamate], for which the IC50 in assay [1] is at most 10 nM; in assay [2], at most 10 nM; in assay [3] it was over 1000 nM.
With `CNc1nc(=O)n([C@@H]2CC[C@@H](NC(=O)OC)C2)c2c1cnc1[nH]c(-c3cnn(C)c3)c(-c3ccc4c(cnn4C(C)C)c3)c12` [Example 42, Methyl ((1R,3R)-3-(9-(1-isopropyl-1H-indazol-5-yl)-8-(1-methyl-1H-pyrazol-4-yl)-4-(methylamino)-2-oxo-2,7-dihydro-1H-pyrrolo[3′,2′:5,6]pyrido[4,3-d]pyrimidin-1-yl)cyclopentyl)carbamate], the results for the IC50 in assay [1], in assay [2] and in assay [3] were 10 to 100 nM, 10 to 100 nM and over 1000 nM, respectively.
Take `COC(=O)N[C@@H]1CC[C@@H](N2C(=O)NCc3cnc4[nH]c(-c5cnn(C)c5)c(-c5ccc6c(cnn6C6CCC6)c5)c4c32)C1` [Example 24, Methyl ((1R,3R)-3-(9-(1-cyclobutyl-1H-indazol-5-yl)-8-(1-methyl-1H-pyrazol-4-yl)-2-oxo-2,3,4,7-tetrahydro-1H-pyrrolo[3′,2′:5,6]pyrido[4,3-d]pyrimidin-1-yl)cyclopentyl) carbamate]: the IC50 in assay [1] lay in the range of 10 to 100 nM; in assay [2] it was 10 to 100 nM; in assay [3] it was 100 to 500 nM.
For `COC(=O)N[C@H]1C[C@H](N2C(=O)NCc3cnc4[nH]c(-c5cc(C)nc(C)c5)c(-c5ccc6c(cnn6C(C)C)c5)c4c32)C1` [Example 35, Methyl ((1r,3r)-3-(8-(2,6-dimethylpyridin-4-yl)-9-(1-isopropyl-1H-indazol-5-yl)-2-oxo-2,3,4,7-tetrahydro-1H-pyrrolo[3′,2′:5,6]pyrido[4,3-d]pyrimidin-1-yl)cyclobutyl) carbamate], the figures for the half-maximal inhibitory concentration (IC50) in assay [1], in assay [2] and in assay [3] were 10 to 100 nM, 10 to 100 nM and over 1000 nM, respectively.
Turning to `CC(=O)N[C@H]1C[C@H](N2C(=O)NCc3cnc4[nH]c(-c5cnn(C)c5)c(-c5ccc6c(cnn6C(C)C)c5)c4c32)C1` [Example 2, N-((1r,3r)-3-(9-(1-Isopropyl-1H-indazol-5-yl)-8-(1-methyl-1H-pyrazol-4-yl)-2-oxo-2,3,4,7-tetrahydro-1H-pyrrolo[3′,2′:5,6]pyrido[4,3-d]pyrimidin-1-yl)cyclobutyl) acetamide], the IC50 is 10 to 100 nM in assay [1], 10 to 100 nM in assay [2] and over 1000 nM in assay [3].
